Tests used:
[1] = system: glioma cell line A-172; assay: Cell-mediated cytotoxicity (CARE-LASS) assay, LAK effector cells on A-172 target cells; type: cell-based; details: Seq. Id. No. 30 5 microM
Procedure: (§1) Cell-mediated cytotoxicity was quantified by the CARE-LASS assay (Lichtenfels et al. 1994) using the NSCLC (non small cell lung carcinoma cell) line NCI-H661, the glioma cell line A-172, and the pancreatic cancer cell line Hup-T3 as target cells. NCI-H661 cells were pretreated with 5 μM TGF (transforming growth factor)-beta 1 specific antisense phosphorothioate oligodeoxynucleotide (PTO) Seq. Id. No. 14. A-172 and Hup-T3 cells were pretreated with 5 μM TGF-beta 2 specific antisense phosphorothioate oligodeoxynucleotide Seq. Id. No. 30 in medium at 5% CO2 and 37° C. for 3 days according to the cell line suppliers' instructions. Additionally, for Hup-T3 cells 3 μg/ml Lipofectin® were used to enhance cellular uptake of the PTO. Untreated cells and cells treated with 3 μg/ml Lipofectin® were used as controls.
Lymphokine activated killer cells (LAK cells) were used as effector cells. LAK cells were generated by a 3 day pretreatment of 5×10^6 PBMC from healthy volunteers with 10 ng/ml rh IL-2 (recombinant human interleukin 2) in 4 ml RPMI 1640 medium supplemented with 10% fetal calf serum at 5% CO2 and 37° C. One part of the effector cells was incubated additionally with rh TGF-[…] to mimic the presence of tumor cells ([…] rh TGF-[…]1 for NCI-H661, […] rh TGF-[…]2 for A-172 and Hup-T3). The other part of cells was incubated without additional treatment.
Effector cells were incubated with the target cells with and without cytostatic drugs for 4 h. The supraaditive effect respectively the inhibition was calculated by subtracting the specific cell lysis, of the control from the specific cell lysis of the chemotherapeutic agent. Taking into account the sign this difference is summed up with the specific lysis of the inhibitor of TGF-beta, as depicted in the figures. In case the specific lysis of the combination of a chemotherapeutic agent with the TGF-beta inhibitor was higher than this sum, this was interpreted as supraaditive effect. In case the specific lysis of this combination was smaller than the sum this was interpreted as inhibition.

[2] = system: pancreatic cancer cell line Hup-T3; assay: Cell-mediated cytotoxicity (CARE-LASS) assay, LAK effector cells on Hup-T3 target cells; type: cell-based; details: FIG. 6; effector:target 10:1; Seq. Id. No. 30 5 microM; gemzar 20 μg/ml
Procedure: Cell-mediated cytotoxicity was quantified by the […] assay (Lichtenfels et al. 1994) using the NSCLC (non small cell lung carcinoma cell) line NCI-H661, the glioma cell line A-172, and the pancreatic cancer cell line Hup-T3 as target cells. […] Id. No. 14. […] Id. […] Additionally, for Hup-T3 cells 3 μg/ml Lipofectin® were used to enhance cellular uptake of the PTO. Untreated cells and cells treated with 3 μg/ml Lipofectin® were used as controls. Lymphokine activated killer cells (LAK cells) were used as effector cells. […] The other part of cells was incubated without additional treatment. Effector cells were incubated with the target cells with and without cytostatic drugs for 4 h. The supraaditive effect respectively the inhibition was calculated by subtracting the specific cell lysis, of the control from the specific cell lysis of the chemotherapeutic agent. Taking into account the sign this difference is summed up with the specific lysis of the inhibitor of TGF-beta, as depicted in the figures. In case the specific lysis of the combination of a chemotherapeutic agent with the TGF-beta inhibitor was higher than this sum, this was interpreted as supraaditive effect. In case the specific lysis of this combination was smaller than the sum this was interpreted as inhibition.

[3] = system: NSCLC (non small cell lung carcinoma cell) line NCI-H661; assay: Cell-mediated cytotoxicity (CARE-LASS) assay, LAK effector cells on NCI-H661 target cells; type: cell-based; details: FIG. 9; effector:target 1.25:1; Seq. Id. No. 14 5 microM; taxotere 0.37 μg/ml
Procedure: as §1
Lymphokine activated killer cells (LAK cells) were used as effector cells. LAK cells were generated by a 3 day pretreatment of 5×10^6 PBMC from healthy volunteers with 10 ng/ml rh IL-2 (recombinant human interleukin 2) in 4 ml RPMI 1640 medium supplemented with 10% fetal calf serum at 5% CO2 and 37° C. […]
Effector cells were incubated with the target cells with and without cytostatic drugs for 4 h. The supraaditive effect respectively the inhibition was calculated by subtracting the specific cell lysis, of the control from the specific cell lysis of the chemotherapeutic agent. […]

[4] = system: glioblastoma, WHO grade IV; assay: Clinical phase I/II study, intratumoral Seq. Id. No. 30 in patients with glioblastoma; type: in vivo, human
Text: (§2) Clinical studies represented herein were primarily designed as safety studies and were approved by the local ethic committees and performed in accordance with the current international declaration of Helsinki for human experimentation and GCP and had to sign a written informed consent prior to recruitment.
(§3) The treatment with the antineoplastic agent followed routine schedules if nothing else is mentioned. Before the treatment with an TGF-beta antagonist, the antisense oligonucleotide of TGF-beta, with Seq. No. 30 the patients were selected according to the following criteria.
(§4) Patients had high grade gliom, either anaplastic astrocytome, WHO grade III, or glioblastoma, WHO grade IV, refractory to or recurrent after standard therapy (surgery, radiotherapy and different therapies with antineoplastic substances). Patients had not received antineoplastic agents within 10 days prior to the administration of the antagonist. Patients were between 18 and 75 years old. Karnofsky performance status (KPS) was at least 70%. Patients with clinically significant acute infections, cardiovascular abnormalities or poorly controlled seizures and pregnant and lactating females were excluded.
Surgical planning was based on computer tomography or magnetic resonance images. The perforated part of the catheter was placed in the solid, enhancing area of the tumor. Ventricles, cysts, resection cavities from prior surgical interventions, blood vessels and eloquent brain areas had to be avoided by the catheter trajectory. The catheter was introduced through a standard burr hole into the center of the largest tumor lesion. The distal end of the catheter was passed several centimetres under the galea through the skin and filled with saline. TGF-beta 2 specific antisense oligonucleotide with Seq. Id. No. 30 was administered intratumorally as a continuous high-flow microperfusion using an external pump system, Graseby 3200 (Smith Medical, London, GBM). The application system was removed after the end of the infusion. For safety assessment patients were followed up for 28 days. […]

[5] = system: anaplastic astrocytoma, WHO grade III; assay: Clinical phase I/II study, intratumoral Seq. Id. No. 30 in patients with anaplastic astrocytoma; type: in vivo, human
Text: as §2, §3, §4
Surgical planning was based on computer tomography or magnetic resonance images. The perforated part of the catheter was placed in the solid, enhancing area of the tumor. Ventricles, cysts, resection cavities from prior surgical interventions, blood vessels and eloquent brain areas had to be avoided by the catheter trajectory. The catheter was introduced through a standard burr hole into the center of the largest tumor lesion. The distal end of the catheter was passed several centimetres under the galea through the skin and filled with saline. TGF-beta 2 specific antisense oligonucleotide with Seq. Id. No. 30 was administered intratumorally as a continuous high-flow microperfusion using an external pump system, Graseby 3200 (Smith Medical, London, GBM). The application system was removed after the end of the infusion. For safety assessment patients were followed up for 28 days. Post-study MRI and survival data until death were collected by the investigators.
Comparison of survival data of patients treated with antineoplastic agents in combination with antagonists of factors negatively influencing the immune system (here: an antisense oligonucleotide of TGF-beta with the sequence Id. No. 30) to literature data for treatment with antineoplastic alone. Survival time is given from start of first chemotherapy after tumor recurrence. Median overall survival time of all patients treated with antineoplastic agents and TGF-beta 2 specific antisense oligonucleotide with Seq. Id. No. 30 (anaplastic astrocytom: 8 patients, glioblastoma, 23 patients) are compared to the most current literature data (Theodosopoulos, P. V. et al. 2001).
Reduction of tumor volumes of patients 04 and 17 was more than 80%. Tumor volume was assessed by measurement of the largest cross-sectional diameter of the enhancing lesion in the first layer and the largest cross-sectional diameter perpendicular to the first in the same plane and layer. For the third dimension, the largest cross-sectional diameter of all further planes perpendicular to the first one was determined.

[6] = FIG. 10, effector:target 5:1, procarbacine 3 nmol/ml
[7] = FIG. 4, effector:target 20:1, BCNU 4 μM
[8] = FIG. 8, effector:target 2.5:1, vincristine 0.04 μmol/ml
[9] = calculated after start of chemotherapy, patients treated with antineoplastic agents and Seq. Id. No. 30
[10] = oligonucleotide following chemotherapy (mainly temozolomide)
[11] = FIG. 5, effector:target 1.25:1, CCNU 10 μM
[12] = FIG. 7, effector:target 10:1, temozolomide 50 μM

CNNCc1ccc(C(=O)NC(C)C)cc1 [procarbacine, reference compound]
specific lysis of tumor cells [1, 6]: 6.1%

Nc1ccn([C@@H]2O[C@H](CO)[C@@H](O)C2(F)F)c(=O)n1 [gemzar, reference compound]
specific lysis of tumor cells [2]: 34.5%

O=NN(CCCl)C(=O)NCCCl [BCNU, N,N′-bis(2-chlorethyl)-N-nitroso-urea, reference compound]
specific lysis of tumor cells [1, 7]: 15.6%

CC(=O)O[C@@]12CO[C@@H]1C[C@H](O)[C@@]1(C)C(=O)[C@H](O)C3=C(C)[C@@H](OC(=O)[C@H](O)[C@@H](NC(=O)OC(C)(C)C)c4ccccc4)C[C@@](O)([C@@H](OC(=O)c4ccccc4)[C@H]21)C3(C)C [taxotere, reference compound]
specific lysis of tumor cells [3]: 30.5%

CC[C@]1(O)C[C@H]2CN(CCc3c([nH]c4ccccc34)[C@@](C(=O)OC)(c3cc4c(cc3OC)N(C=O)[C@H]3[C@@](O)(C(=O)OC)[C@H](OC(C)=O)[C@]5(CC)C=CCN6CC[C@]43[C@@H]65)C2)C1 [vincristine, reference compound]
specific lysis of tumor cells [1, 8]: 12.6%

CGGCATGTCTATTTTGTA [Seq. Id. No. 30]
specific lysis of tumor cells [2]: 59.5%
median overall survival time ([4]; FIG. 3, Seq. Id. No. 30 following temozolomide, from start of first chemotherapy after tumor recurrence, 10 patients): 45.1 weeks
median overall survival in our study [4, 9]: 42.4 weeks
median overall survival times [4, 10]: 45 weeks
specific lysis of tumor cells [1, 7]: 29.4%
specific lysis of tumor cells [1, 11]: 4.4%
specific lysis of tumor cells [1, 12]: 39.2%
specific lysis of tumor cells [1, 8]: 13.9%
tumor response ([5]; 1. Example, one patient, 21 months after first application, assessed by 3 independent specialists): complete response
overall survival after first recurrence ([5]; 1. Example, one patient, one cycle 10 μM, 4 μL/min, 1.42 mg in 4 days intratumorally after ACNU/tenoposide, temozolomide, Caelyx): 195 weeks
overall survival after diagnosis of anaplastic astrocytoma ([5]; 1. Example, one patient, one cycle intratumorally after prior chemotherapy): 208 weeks
tumor reduction ([5]; 2. Example, one patient, magnetic resonance image 19.4 months after start of oligonucleotide treatment, central reading, partial response): 83%
median overall survival time ([5]; FIG. 3, Seq. Id. No. 30 following temozolomide, from start of first chemotherapy after tumor recurrence, 3 patients): 146.6 weeks
mean overall survival ([5]; all anaplastic astrocytoma patients): 90 weeks
median overall survival in our study [5, 9]: 147 weeks
mean overall survival ([5]; combination of Seq. Id. No. 30 and at least one further antineoplastic agent (e.g. temozolomide)): 146.6 weeks
median overall survival times [5, 10]: about 147 weeks
Reduction of tumor volumes ([5]; patients 04 and 17): more than 80%

O=NN(CCCl)C(=O)NC1CCCCC1 [CCNU, 1-(2-Chloroethyl)-3-cyclohexyl-1-nitrosourea, reference compound]
specific lysis of tumor cells [1, 11]: 0.5%

CTGATGTGTTGAAGAACA (chemistry not given here) [Seq. Id. No. 14]
specific lysis of tumor cells [3]: 65.3%
specific lysis of tumor cells [1, 6]: 16.4%

Cn1nnc2c(C(N)=O)ncn2c1=O [temozolomide, 3,4-dihydro-3-methyl-4-oxoimidazo->5,1d′1,2,3,4-tetrazin-8-carboximide, reference compound]
specific lysis of tumor cells [1, 12]: 31.3%

From US20100160208A1, “Pharmaceutical composition” (Antisense Pharma GmbH, priority 2003, published 2010)
